{"source": "patent US11998600B2", "about": "“Enhancing the therapeutic activity of an immune checkpoint inhibitor” (MaineHealth, priority 2015, dated 2024)", "key": {"[1]": {"test_system": "chick chorioallantoic membrane (CAM)", "experiment": "Chick CAM angiogenesis assay, induction by RGD collagen peptides", "format": "in vivo", "details": "chick CAM", "experimental": "The chick chorioallantoic membrane (CAM) assays were carried out with some modifications (19). For all experiments CAMs of 10-day-old chick embryos obtained from Charles River (North Franklin, CT) were separated from the shell membrane. Filter discs either non-treated (inflammation assays) pretreated (angiogenesis assays) with cortisone acetate (3.0 mg/ml) containing RPMI only or FGF-2 (40 ng). CAMs were either non-treated or treated topically with Mab XL313, XL166 or a non-specific control antibody (10 μg/embryo every 24 h for three consecutive treatments). […] At the end of the incubation period the embryos were sacrificed and the CAM tissues were analyzed. Angiogenesis was quantified by counting the number of angiogenic branching blood vessels within the area of the filter disc. The angiogenic index was determined by subtracting the mean number of blood vessel branch points from untreated CAMs from each experimental condition. Eight to twelve embryos were used per condition and experiments were repeated at least three times.\nTo examine this possibility, the effects of the RGDKGE (SEQ ID NO. 1) containing collagen peptide on angiogenesis and inflammation in the chick CAM were assessed."}, "P38MAPK": {"test_system": "P38MAPK", "experiment": "P38MAPK phosphorylation in HRMVEC attached to collagen peptides, Western blot", "format": "cell-based, human", "details": "cells attached to immobilized peptide; FIG. 6E", "experimental": "Endothelial cells (HUVECs or HRMVECs) were incubated in serum free media with 1 mM MgCl2, 0.2 mM MnCl2 in the presence of a Src inhibitor, PP2, (10 μM) a P38MAPK inhibitor, SB202190 (10 μM) or vehicle only (DMSO) for 10 min at 37° C. Treated cells were then seeded on to immobilized P-1 and P-2 and lysates were collected at 15 min.\nWhole cell and CAM tissue lysates were collected in RIPA buffer supplemented with 1× protease inhibitor and 1× phosphatase inhibitor and were run on polyacrylamide gels using denaturing conditions. Prior to loading the gels, 6× sample buffer was added to each of the lysates (final concentration 1×) and boiled for five minutes. Twenty to 50 μg of total protein were loaded into each lane. […] Gels were run at 60 volts (v) until the dye front passed through the stacking gel, and then the voltage was increased to 100V for the remainder of the separation. Precision Plus protein standards (Bio-Rad) were used to visualize migration. Protein was transferred to nitrocellulose membranes using a wet tank system and blocked for 1 h using 10% non-fat dried milk in tris-buffered saline with 0.01% Tween-20 (TBS-T). […] Membranes were washed 3 times in TBS-T for five minutes. Blots were then incubated with HRP conjugated secondary antibodies (1:15000) in 1% non-fat milk in TBS-T for 1 h. […] Western blot bands were quantified using Image J software based on pixel intensity."}, "HRMVEC": {"test_system": "HRMVEC", "experiment": "Cell proliferation assay, HRMVEC", "format": "cell-based, human", "details": "peptide 100 ng/ml, 24 hours; FIG. 8D", "experimental": "(§1) HUVECs (WT, shYAP1 or control transfected) or HRMVECs were plated at 2,000 cells per well with complete EGM-2 media containing 2.0% FBS in the absence or presence of P-1, P-2 or P-C (100 ng/ml) and allowed to grow for 24 hours. Cell growth was monitored using a BrdU or MMT assay kits according to manufacturer's instructions. All assays were completed at least three times in triplicate wells."}, "HUVEC": {"test_system": "HUVEC", "experiment": "Cell proliferation assay, HUVEC", "format": "cell-based, human", "details": "peptide 100 ng/ml, 24 hours; FIG. 8C", "experimental": "as §1"}, "[2]": {"test_system": "endothelial cells transduced with non-specific shRNA", "experiment": "Cell proliferation assay, endothelial cells transduced with non-specific shRNA", "format": "cell-based, human", "details": "soluble peptide; FIG. 8G", "experimental": "as §1\nRaw cells were transfected with 1 μg of HuSH shRNA plasmids for collagen type I, alpha 2 using Amaxa cell line nucleofector kit V (program #T024). Constructs expressing 21-nucleotide short hairpin RNAs (shRNA) targeting human YAP (shYAP) or non-targeting control (shNT, Sigma-Aldrich, SHC002) were used. Humantargeting shYAP1 lentiviral shRNA was obtained from the Thermo Scientific RNAi consortium (TRCN0000107625). Constructs were packaged into lentivirus, pseudotyped with the vesicular stomatitis virus glycoprotein. Transduction was performed by incubating cells with lentivirus, and stably transduced cells were subsequently used for studies. All cell lines were verified by morphology and mouse and human YAP-specific PCR. […] Endothelial cells were certified mycoplasma-negative by PCR (Lonza), and primary cell cultures were used within the indicated passage numbers. Cells were transduced and selected using puromycin.\nEndothelial cells with YAP specific or non-specific shRNAs were transduced."}}, "data": [{"sequence": "QGPRGDKGE [Mab P-2]", "values": [{"measurement": "dose dependent induction of CAM angiogenesis", "setting": "[1]; FIG. 5B", "value": "dose dependently enhanced angiogenesis"}, {"measurement": "dose of maximum induction of angiogenesis", "setting": "[1]; FIG. 5B", "value": 100, "unit": "ng/CAM"}, {"measurement": "induction of CAM angiogenesis as compared to no treatment", "setting": "[1]; peptides 100 ng/ml, FIG. 5C", "value": "significantly (P>0.05) induced angiogenesis"}, {"measurement": "phosphorylation of P38MAPK in HRMVEC, P-2 as compared to P-1", "setting": "P38MAPK", "value": "enhanced phosphorylation of P38MAPK"}, {"measurement": "HRMVEC growth with soluble peptide", "setting": "HRMVEC", "value": "significantly (P<0.05) enhanced endothelial cell growth"}, {"measurement": "HUVEC growth with soluble peptide", "setting": "HUVEC", "value": "significantly (P<0.05) enhanced endothelial cell growth"}, {"measurement": "endothelial cell growth in control transduced cells", "setting": "[2]", "value": "enhanced growth"}]}]}
